The values that follow are results of earlier work, collected in patent US20110319370A1, “Combination Hormone Therapy for the Eye” (DUQUESNE UNIVERSITY OF THE, priority 2010, published 2011).

Series [1] deals with newborn rats treated with buthionine sulfoximine (BSO). The note with it: cataracts develop by age 16 days, reduced from 100% without melatonin.

Each structure is given as a SMILES string. Values after ≈ are worked out from the molar mass of the structure shown.

As to `COc1ccc2[nH]cc(CCNC(C)=O)c2c1` [Melatonin], for the setting “aqueous media”, the “solubility in aqueous media” value was 2.4 mg/mL (≈ 10.3 mM). The “solubility in organic solvents” value (organic solvents) was 140.5 mg/mL (≈ 605 mM). Further, the cataract incidence in series [1] is reported as 6.2%.
